Consider two compounds from patent US8163509B2, “Biological markers predictive of anti-cancer response to insulin-like growth factor-1 receptor kinase inhibitors” (The Regents of the University of Colorado, A Body Corporate, priority 2008, dated 2012).

Assay in all cases: SRB proliferation assay, 72 h
In general terms: In SRB staining, fixed cells bind dye roughly in proportion to their protein.

One assay concerns SW480 CRC cell line. In kind it is cell-based, human. The note with it: for IC50: Homo sapiens, SW480. As to the method:
Cell proliferation was evaluated by SRB following exposure to OSI-906 for 72 hours. Cells were plated at an optimized density in 96-well plates, incubated overnight at 37° C., and then exposed to a serial dilution of OSI-906. After 72 hours incubation, cells were fixed with trichloroacetic acid and an SRB was performed as described in materials and methods.
(§1) Cell Lines and Culture. […] human colon cancer cell lines, were obtained from American Type Culture Collection (Manassas, Va.). Cells were grown in RPMI medium supplemented with 10% fetal bovine serum, 1% non-essential amino acids, 1% penicillin/streptomycin and were maintained at 37° C. in an incubator under an atmosphere containing 5% CO2. The cells were routinely screened for the presence of mycoplasma (MycoAlert, Cambrex Bio Science, Baltimore, Md.) and were exposed to PQIP when they reached approximately 70% confluence.
(§2) Multiple clones from the same transfection were pooled and grown under puromycin selection.
(§3) The CRC cell lines were treated with a range of concentrations of PQIP (from 0.05-5 μM) for 72 hours.
(§4) To characterize the potential functionality that the selected genes may play in the sensitivity or resistance to PQIP, resistant and sensitive CRC cell lines were stably transfected with specific shRNA, treated with increasing concentrations of PQIP and proliferation assays performed to observe, if when manipulated, these genes alter responsiveness (i.e. the S or R phenotype). […] Both of these transfected cell lines were assayed for proliferation as described above.
Cell Lines and Culture: Twenty-seven human colon cancer cell lines, were obtained from American Type Culture Collection (Manassas, Va.). The GEO cells were a generous gift from Dr. Fortunato Ciardiello (Cattedra di Oncologia Medica, Dipartimento Medico-Chirurgico di Internistica Clinica e Sperimentale “F Magrassi e A Lanzara,” Seconda Università degli Studi di Napoli, Naples). All cells except GEO were grown in RPMI medium supplemented with 10% fetal bovine serum, 1% non-essential amino acids, 1% penicillin/streptomycin and were maintained at 37° C. in an incubator under an atmosphere containing 5% CO2. GEO cells were grown in DMEM/F12 supplemented with 10% fetal bovine serum, 1% non-essential amino acids, 1% penicillin/streptomycin. The cells were routinely screened for the presence of mycoplasma (MycoAlert, Cambrex Bio Science, Baltimore, Md.) and were exposed to OSI-906 when they reached approximately 70% confluence. OSI-906 was provided by OSI Pharmaceuticals, (Boulder, Colo.) and prepared as a 10 mM stock solution in DMSO.
as §2

A further assay concerns RKO CRC cell line. In kind it is cell-based, human. As to conditions: for IC50: Homo sapiens. As to the method: (§5) FIG. 17: Results of cell proliferation assay on the panel of 27 CRC cell lines. Cell proliferation was evaluated by SRB following exposure to OSI-906 for 72 hours. Cells were plated at an optimized density in 96-well plates, incubated overnight at 37° C., and then exposed to a serial dilution of OSI-906. After 72 hours incubation, cells were fixed with trichloroacetic acid and an SRB was performed as described in materials and methods.
as §1
(§6) Cytotoxicity and Combination Effects: HT29, HCT116, RKO, and LS513 CRC cell lines were exposed to 0-10 nM SN-38 (7-Ethyl-10-hydroxy-camptothecin), 0-10 μM Oxaliplatin, or 0-50 μM 5-Fluorouracil (5-FU) for 72 hours. HT29, HCT116, RKO, and LS513 CRC cell lines were exposed to PQIP in combination with SN-38, Oxaliplatin or 5-FU. In all combinations, cells were seeded in 96-well flat bottomed plates and left overnight. PQIP and chemotherapy were both added for 72 hours. The results of the combinations were analyzed by the Chou and Talalay method with Calcusyn (Biosoft, Ferguson, Mo.).
as §3
Combination treatment of PQIP with Chemotherapy in Colon Cancer Cell Lines: IGF1R is overexpressed in CRC and has been associated with resistance to chemotherapy. Therefore, we investigated the effect of PQIP in combination with standard chemotherapy for CRC. Four CRC cell lines including, two PQIP sensitive and two PQIP resistant, were chosen for combinations. HT29 and LS513 CRC cell lines were classified as sensitive, with IC50's around 0.3 μmol/L. HCT116 and RKO CRC cell lines were classified as resistant, with IC50>5 μmol/L. Concentrations were chosen based on single agent proliferation curves for each compound. Cells were exposed to PQIP and chemotherapy (SN38, oxaliplatin, or 5-Fluorouracil) concurrently for 72 h and combinations were assessed using the SRB assay. […] It thus appears that biomarkers which predict tumor cell sensitivity will also indicate which cells will respond in a synergistic manner to an IGF-1R kinase inhibitor (e.g. PQIP) and chemotherapy (i.e. SN38, oxaliplatin, or 5-Fluorouracil). […]

The subject of the next assay is LS513 CRC cell line. In kind it is cell-based, human. As to the method: as §5, §1, §6, §3
(§7) Combination treatment of PQIP with Chemotherapy in Colon Cancer Cell Lines: IGF1R is overexpressed in CRC and has been associated with resistance to chemotherapy. Therefore, we investigated the effect of PQIP in combination with standard chemotherapy for CRC. Four CRC cell lines including, two PQIP sensitive and two PQIP resistant, were chosen for combinations. HT29 and LS513 CRC cell lines were classified as sensitive, with IC50's around 0.3 μmol/L. HCT116 and RKO CRC cell lines were classified as resistant, with IC50>5 μmol/L. Concentrations were chosen based on single agent proliferation curves for each compound. Cells were exposed to PQIP and chemotherapy (SN38, oxaliplatin, or 5-Fluorouracil) concurrently for 72 h and combinations were assessed using the SRB assay. […] It thus appears that biomarkers which predict tumor cell sensitivity will also indicate which cells will respond in a synergistic manner to an IGF-1R kinase inhibitor (e.g. PQIP) and chemotherapy (i.e. SN38, oxaliplatin, or 5-Fluorouracil).
Cell Lines and Culture: Twenty-seven human colon cancer cell lines, were obtained from American Type Culture Collection (Manassas, Va.). The GEO cells were a generous gift from Dr. Fortunato Ciardiello (Cattedra di Oncologia Medica, Dipartimento Medico-Chirurgico di Internistica Clinica e Sperimentale “F Magrassi e A Lanzara,” Seconda Università degli Studi di Napoli, Naples). All cells except GEO were grown in RPMI medium supplemented with 10% fetal bovine serum, 1% non-essential amino acids, 1% penicillin/streptomycin and were maintained at 37° C. in an incubator under an atmosphere containing 5% CO2. GEO cells were grown in DMEM/F12 supplemented with 10% fetal bovine serum, 1% non-essential amino acids, 1% penicillin/streptomycin. […]

The next assay deals with Colo320 CRC cell line. In kind it is cell-based. The note with it: Homo sapiens, COLO 320, 0.05-5 μM, read-out: IC50, growth inhibition by PQIP (SRB). Here is the method:
as §1, §3

The subject of another assay is HT29 CRC cell line. In kind it is cell-based, human. Here is the method: as §5, §1, §6, §3
as §4, with “phenotype). Two resistant cell lines HCT116 and SW480 were transfected with metallothionein 2A (MT-2A) shRNA and were exposed to increasing concentrations of PQIP.” for “phenotype).”, “above. […] HT29 tumor cells were transfected with shRNA for ALDH1A1, which is up regulated in the PQIP sensitive cell lines.” for “above.”
as §7
Cell Lines and Culture: Twenty-seven human colon cancer cell lines, were obtained from American Type Culture Collection (Manassas, Va.). The GEO cells were a generous gift from Dr. Fortunato Ciardiello (Cattedra di Oncologia Medica, Dipartimento Medico-Chirurgico di Internistica Clinica e Sperimentale “F Magrassi e A Lanzara,” Seconda Università degli Studi di Napoli, Naples). […]

[1] abbreviates: 72 hours, 0.05-5 μM, read-out: IC50, growth inhibition by PQIP (SRB).
Where [2] appears, read: 72 hours, read-out: IC50, proliferation, OSI-906 (SRB).

Read-outs that look alike come from different tables or passages of the source.

On to `CN1CCN([C@H]2C[C@@H](c3nc(-c4ccc5ccc(-c6ccccc6)nc5c4)c4c(N)nccn43)C2)CC1` [PQIP, cis-3-[3-(4-Methyl-piperazin-1-yl)-cyclobutyl]1-(2-phenyl-quinolin-7-yl)-imidazo[1,5-a]pyrazin-8-ylamine], for which the IC50 with SW480 CRC cell line (setting [1]) was greater than 5 µM; in the assay on RKO CRC cell line (setting [1]), greater than 5 µM; in the assay with LS513 CRC cell line (Homo sapiens, LS-513, 72 h, LS513, 72 hours, 0.05-5 μM, read-out: IC50, growth inhibition by PQIP (SRB)), less than 0.5 µM; in the assay with LS513 CRC cell line (LS513, 72 hours, 0.05-5 μM, read-out: IC50, growth inhibition by PQIP (SRB)), roughly 0.3 µM; in the assay with Colo320 CRC cell line, less than 0.5 µM; in the assay with HT29 CRC cell line (HT29, 72 hours, 0.05-5 μM, read-out: IC50, growth inhibition by PQIP (SRB)), roughly 0.3 µM. The IC50 with HT29 CRC cell line (Homo sapiens, HT-29, 72 h, HT29, 72 hours, 0.05-5 μM, read-out: IC50, growth inhibition by PQIP (SRB)) is less than 0.5 µM. Moreover, the figures for the “shift in sensitivity to PQIP after shRNA knockdown” value in the assay on SW480 CRC cell line (SW480 transfected with MT2A shRNA vs parental or scramble shRNA control), in the assay with SW480 CRC cell line (SW480 transfected with caldesmon shRNA vs parental or scramble shRNA control) and with HT29 CRC cell line (HT29 with ALDH1A1 shRNA knockdown) were “very modest if any left shift in sensitivity”, “no left shift in sensitivity” and “no left shift in sensitivity”, respectively. Besides, the “combination index (CI) values, PQIP and chemotherapy” value is listed as 0.6-1.4 in the assay with RKO CRC cell line (PQIP with SN38, oxaliplatin or 5-Fluorouracil concurrently 72 h, nearly all combinations, Chou and Talalay); 0.2-1.0 in the assay on LS513 CRC cell line (LS513, PQIP with SN38, oxaliplatin or 5-Fluorouracil concurrently 72 h, nearly all CI values, Chou and Talalay); 0.2-1.0 in the assay on HT29 CRC cell line (HT29, PQIP with SN38, oxaliplatin or 5-Fluorouracil concurrently 72 h, nearly all CI values, Chou and Talalay).
Regarding `C[C@]1(O)C[C@@H](c2nc(-c3ccc4ccc(-c5ccccc5)nc4c3)c3c(N)nccn32)C1` [OSI-906, cis-3-[8-amino-1-(2-phenyl-quinolin-7-yl)-imidazo[1,5-a]pyrazin-3-yl]-1-methyl-cyclobutanol], the IC50 with SW480 CRC cell line (read-out: S/I/R to OSI-906) is greater than 5 µM; with SW480 CRC cell line (setting [2]) it was greater than 5 µM; with RKO CRC cell line (setting [2]), greater than 5 µM; in the assay with RKO CRC cell line (read-out: S/I/R to OSI-906), greater than 5 µM; with LS513 CRC cell line (Homo sapiens, LS-513, 72 h, LS513, 72 hours, read-out: IC50, proliferation, OSI-906 (SRB)) it was no more than 1.5 µM; in the assay on LS513 CRC cell line (Homo sapiens, LS-513, LS513, read-out: S/I/R to OSI-906), no more than 1.5 µM. Moreover, the IC50 in the assay with HT29 CRC cell line (Homo sapiens, HT-29, 72 h, HT29, 72 hours, read-out: IC50, proliferation, OSI-906 (SRB)) is no more than 1.5 µM; in the assay on HT29 CRC cell line (Homo sapiens, HT-29, HT29, read-out: S/I/R to OSI-906), no more than 1.5 µM. Also, the “shift in sensitivity to OSI-906 after MT2A shRNA knockdown” value with SW480 CRC cell line (SW480 stably transfected with MT2A shRNA) was “did not exhibit the same “left shift””.
